Assay results reported in US20220388964A1 (HiberCell, Inc., priority 2019, published 2022).

Biological target: GCN2 (Homo sapiens, UniProt Q9P2K8)
Assay: TR-FRET biochemical assay for inhibition of GCN2 (Example 106, for Example 1-4BB)
Conditions: Table 9

Chain of GCN2 (Q9P2K8 whole entry): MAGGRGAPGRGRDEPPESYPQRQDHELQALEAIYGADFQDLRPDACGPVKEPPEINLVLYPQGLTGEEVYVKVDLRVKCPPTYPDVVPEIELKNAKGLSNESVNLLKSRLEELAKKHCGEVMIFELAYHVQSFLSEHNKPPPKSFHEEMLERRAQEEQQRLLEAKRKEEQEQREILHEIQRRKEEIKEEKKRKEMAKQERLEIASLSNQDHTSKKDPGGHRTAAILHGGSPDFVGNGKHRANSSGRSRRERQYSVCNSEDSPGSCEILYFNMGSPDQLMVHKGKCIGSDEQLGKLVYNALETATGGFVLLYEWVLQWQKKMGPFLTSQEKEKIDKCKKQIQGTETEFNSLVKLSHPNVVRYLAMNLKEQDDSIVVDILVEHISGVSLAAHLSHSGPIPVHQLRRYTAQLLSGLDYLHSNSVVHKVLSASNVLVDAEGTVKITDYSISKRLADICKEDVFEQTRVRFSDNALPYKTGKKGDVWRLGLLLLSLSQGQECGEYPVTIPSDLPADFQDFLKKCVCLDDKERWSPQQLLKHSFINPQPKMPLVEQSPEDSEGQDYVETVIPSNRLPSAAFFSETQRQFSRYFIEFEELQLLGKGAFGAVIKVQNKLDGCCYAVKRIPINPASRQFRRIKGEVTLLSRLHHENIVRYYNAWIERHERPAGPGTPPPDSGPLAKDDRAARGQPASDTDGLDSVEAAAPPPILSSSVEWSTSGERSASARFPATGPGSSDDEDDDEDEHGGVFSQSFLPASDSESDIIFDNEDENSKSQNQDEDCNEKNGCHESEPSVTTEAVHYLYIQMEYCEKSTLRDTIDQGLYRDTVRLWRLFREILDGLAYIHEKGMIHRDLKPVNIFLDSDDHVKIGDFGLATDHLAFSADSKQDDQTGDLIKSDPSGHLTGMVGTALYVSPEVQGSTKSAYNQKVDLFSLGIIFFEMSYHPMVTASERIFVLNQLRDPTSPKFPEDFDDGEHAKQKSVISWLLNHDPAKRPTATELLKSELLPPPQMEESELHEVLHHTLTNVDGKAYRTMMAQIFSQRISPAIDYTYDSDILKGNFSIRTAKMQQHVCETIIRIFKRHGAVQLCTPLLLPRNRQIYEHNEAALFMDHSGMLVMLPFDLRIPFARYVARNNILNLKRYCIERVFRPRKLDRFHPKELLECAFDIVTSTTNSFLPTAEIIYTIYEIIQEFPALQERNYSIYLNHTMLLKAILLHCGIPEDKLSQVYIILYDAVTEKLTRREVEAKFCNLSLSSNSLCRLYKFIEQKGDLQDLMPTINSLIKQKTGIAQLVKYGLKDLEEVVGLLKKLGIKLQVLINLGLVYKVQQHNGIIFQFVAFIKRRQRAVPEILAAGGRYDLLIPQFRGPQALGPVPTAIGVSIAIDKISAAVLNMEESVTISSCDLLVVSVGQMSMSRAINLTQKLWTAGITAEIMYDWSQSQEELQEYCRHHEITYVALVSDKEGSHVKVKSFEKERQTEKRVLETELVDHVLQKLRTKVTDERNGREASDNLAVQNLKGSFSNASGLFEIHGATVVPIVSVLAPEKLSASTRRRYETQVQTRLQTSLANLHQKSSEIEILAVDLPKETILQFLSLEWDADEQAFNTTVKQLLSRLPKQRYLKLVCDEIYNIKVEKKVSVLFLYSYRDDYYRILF

With COc1ncc(F)cc1S(=O)(=O)Nc1cc(C#N)cc(-c2ccc3c(-c4ncc[nH]4)n[nH]c3c2F)c1F [Example 3CB, N-(5-cyano-2-fluoro-3-(7-fluoro-3-(1H-imidazol-2-yl)-1H-indazol-6-yl)phenyl)-5-fluoro-2-methoxypyridine-3-sulfonamide] the IC50 was > 10000 nM.
In the case of Cc1ncc(F)cc1S(=O)(=O)Nc1cc(C#N)cc(-c2ccc3c(-c4ncc[nH]4)n[nH]c3c2F)c1F [Example 3CC, N-(5-cyano-2-fluoro-3-(7-fluoro-3-(1H-imidazol-2-yl)-1H-indazol-6-yl)phenyl)-5-fluoro-2-methylpyridine-3-sulfonamide], the IC50 is reported as > 10000 nM.
In the case of Cc1ncc(F)cc1S(=O)(=O)Nc1cc(F)cc(-c2ccc3c(C(=O)NCCCN(C)C)n[nH]c3c2F)c1F [Example 3CD, 6-(2,5-difluoro-3-((5-fluoro-2-methylpyridine)-3-sulfonamido)phenyl)-N-(3-(dimethylamino)propyl)-7-fluoro-1H-indazole-3-carboxamide], the IC50 is reported as < 500 nM.
COc1ncc(C#N)cc1S(=O)(=O)Nc1cc(F)cc(-c2ccc3c(C(=O)NCCCN(C)C)n[nH]c3c2F)c1F [Example 3CE, 6-(3-((5-cyano-2-methoxy-pyridine)-3-sulfonamido)-2,5-difluorophenyl)-N-(3-(dimethylamino)propyl)-7-fluoro-1H-indazole-3-carboxamide] was tested, and the IC50 was > 10000 nM.
COc1ncc(Cl)cc1S(=O)(=O)Nc1cc(F)cc(-c2ccc3c(C(N)=O)n[nH]c3c2F)c1F [Example 3CF, 6-(3-((5-chloro-2-methoxy-pyridine)-3-sulfonamido)-2,5-difluorophenyl)-7-fluoro-1H-indazole-3-carboxamide] was tested, and the IC50 was < 500 nM.
With Cc1ncc(F)cc1S(=O)(=O)Nc1cc(F)cc(-c2ccc3c(C(N)=O)n[nH]c3c2F)c1F [Example 3CG, 6-(2,5-difluoro-3-((5-fluoro-2-methylpyridine)-3-sulfon-amido)phenyl)-7-fluoro-1H-indazole-3-carboxamide] the IC50 was < 500 nM.
For O=S(=O)(Nc1ccc(F)c(-c2ccc3c(-c4ncc[nH]4)n[nH]c3c2F)c1F)c1cc(F)cc(CO)c1Cl [Example 3CH, 2-chloro-N-(2,4-difluoro-3-(7-fluoro-3-(1H-imidazol-2-yl)-1H-indazol-6-yl)phenyl)-5-fluoro-3-(hydroxymethyl)-benzenesulfonamide], the IC50 was < 500 nM.
Cc1ncc(F)cc1S(=O)(=O)Nc1ccc(F)c(-c2ccc3c(C(=O)NCCCN(C)C)n[nH]c3c2F)c1F [Example 3CI, 6-(2,6-difluoro-3-((5-fluoro-2-methylpyridine)-3-sulfonamido)phenyl)-N-(3-(dimethylamino)propyl)-7-fluoro-1H-indazole-3-carboxamide] showed an IC50 of 500 to 2500 nM.
Cc1ncc(S(=O)(=O)Nc2cc(F)cc(-c3ccc4c(-c5ncc[nH]5)n[nH]c4c3F)c2F)s1 [Example 3CJ, N-(2,5-difluoro-3-(7-fluoro-3-(1H-imidazol-2-yl)-1H-indazol-6-yl)phenyl)-2-methylthiazole-5-sulfonamide] showed an IC50 of 500 to 2500 nM.
COc1ncc(F)cc1S(=O)(=O)Nc1ccc(F)c(-c2ccc3c(-c4nnc(C)[nH]4)n[nH]c3c2F)c1F [Example 3CK, N-(2,4-difluoro-3-(7-fluoro-3-(5-methyl-4H-1,2,4-triazol-3-yl)-1H-indazol-6-yl)phenyl)-5-fluoro-2-methoxypyridine-3-sulfonamide] was tested, and the IC50 was < 500 nM.
In the case of COc1ncncc1S(=O)(=O)Nc1ccc(F)c(-c2ccc3c(C(=O)NCCCO)n[nH]c3c2F)c1F [Example 3CL, 6-(2,6-difluoro-3-((4-methoxypyrimidine)-5-sulfonamido)phenyl)-7-fluoro-N-(3-hydroxypropyl)-1H-indazole-3-carboxamide], the IC50 is reported as > 10000 nM.
In the case of COc1ncncc1S(=O)(=O)Nc1ccc(F)c(-c2ccc3c(C(=O)NCCCN(C)C)n[nH]c3c2F)c1F [Example 3CM, 6-(2,6-difluoro-3-((4-methoxypyrimidine)-5-sulfonamido)phenyl)-N-(3-(dimethylamino)propyl)-7-fluoro-1H-indazole-3-carboxamide], the IC50 is reported as > 10000 nM.
COc1ncc(CO)cc1S(=O)(=O)Nc1ccc(F)c(-c2ccc3c(C(=O)NCCCO)n[nH]c3c2F)c1F [Example 3CN, 6-(2,6-difluoro-3-((5-(hydroxylmethyl)-2-methoxy-pyridine)-3-sulfonamido)-phenyl)-7-fluoro-N-(3-hydroxypropyl)-1H-indazole-3-carboxamide] gave an IC50 of 2500 to 10000 nM.
With Cc1ccc(S(=O)(=O)Nc2ccc(F)c(-c3ccc4c(C(=O)NCCCN(C)C)n[nH]c4c3F)c2F)c(C)n1 [Example 3CO, N-(3-(dimethylamino)propyl)-6-(3-((2,6-dimethylpyridine)-3-sulfonamido)-2,6-difluorophenyl)-7-fluoro-1H-indazole-3-carboxamide] the IC50 was 500 to 2500 nM.
Cc1ccc(S(=O)(=O)Nc2ccc(F)c(-c3ccc4c(C(=O)NCCCO)n[nH]c4c3F)c2F)c(C)n1 [Example 3CP, 6-(3-((2,6-dimethylpyridine)-3-sulfonamido)-2,6-difluorophenyl)-7-fluoro-N-(3-hydroxypropyl)-1H-indazole-3-carboxamide] showed an IC50 of 500 to 2500 nM.
In the case of COc1ncc(Cl)cc1S(=O)(=O)Nc1ccc(F)c(-c2ccc3c(C(=O)Nc4cn[nH]c4)n[nH]c3c2F)c1F [Example 3CQ, 6-(3-((5-chloro-2-methoxy-pyridine)-3-sulfonamido)-2,6-difluorophenyl)-7-fluoro-N-(1H-pyrazol-4-yl)-1H-indazole-3-carboxamide], the IC50 is reported as < 500 nM.
With COc1ncc(Cl)cc1S(=O)(=O)Nc1ccc(F)c(-c2ccc3c(C(=O)Nc4cnn(C(F)F)c4)n[nH]c3c2F)c1F [Example 3CR, 6-(3-((5-chloro-2-methoxy-pyridine)-3-sulfonamido)-2,6-difluorophenyl)-N-(1-(difluoromethyl)-1H pyrazol-4-yl)-7-fluoro-1H-indazole-3-carboxamide] the IC50 was 500 to 2500 nM.
In the case of COc1ncc(Cl)cc1S(=O)(=O)Nc1ccc(F)c(-c2ccc3c(C(=O)Nc4c[nH]nc4C)n[nH]c3c2F)c1F [Example 3CS, 6-(3-((5-chloro-2-methoxy-pyridine)-3-sulfonamido)-2,6-difluorophenyl)-7-fluoro-N-(3-methyl-1H-pyrazol-4-yl)-1H-indazole-3-carboxamide], the IC50 is reported as < 500 nM.
In the case of COc1ncc(Cl)cc1S(=O)(=O)Nc1ccc(F)c(-c2ccc3c(C(=O)Nc4cnn(CCO)c4)n[nH]c3c2F)c1F [Example 3CT, 6-(3-((5-chloro-2-methoxy-pyridine)-3-sulfonamido)-2,6-difluorophenyl)-7-fluoro-N-(1-(2-hydroxyethyl)-1H-pyrazol-4-yl)-1H-indazole-3-carboxamide], the IC50 is reported as < 500 nM.
For COc1ncc(Cl)cc1S(=O)(=O)Nc1ccc(F)c(-c2ccc3c(C(=O)Nc4nn[nH]n4)n[nH]c3c2F)c1F [Example 3CU, 6-(3-((5-chloro-2-methoxy-pyridine)-3-sulfonamido)-2,6-difluorophenyl)-7-fluoro-N-(2H-tetrazol-5-yl)-1H-indazole-3-carboxamide], the IC50 was < 500 nM.
COc1ncc(Cl)cc1S(=O)(=O)Nc1ccc(F)c(-c2ccc3c(C(=O)Nc4cnoc4)n[nH]c3c2F)c1F [Example 3CV, 6-(3-((5-chloro-2-methoxy-pyridine)-3-sulfonamido)-2,6-difluorophenyl)-7-fluoro-N-(isoxazol-4-yl)-1H-indazole-3-carboxamide] was tested, and the IC50 was < 500 nM.
COc1ncc(F)cc1S(=O)(=O)Nc1ccc(F)c(-c2ccc3c(-c4n[nH]c(=O)[nH]4)n[nH]c3c2F)c1F [Example 3CW, N-(2,4-difluoro-3-(7-fluoro-3-(5-oxo-4,5-dihydro-1H-1,2,4-triazol-3-yl)-1H-indazol-6-yl)phenyl)-5-fluoro-2-methoxypyridine-3-sulfonamide] was tested, and the IC50 was < 500 nM.
Work on COc1ncncc1S(=O)(=O)Nc1ccc(F)c(-c2ccc3c(-c4ncc[nH]4)n[nH]c3c2F)c1F [Example 3CX, N-(2,4-difluoro-3-(7-fluoro-3-(1H-imidazol-2-yl)-1H-indazol-6-yl)phenyl)-4-methoxypyrimidine-5-sulfonamide] yielded an IC50 of 500 to 2500 nM.
COc1ncc(C#N)cc1S(=O)(=O)Nc1ccc(F)c(-c2ccc3c(C(N)=O)n[nH]c3c2F)c1F [Example 3CY, 6-(3-((5-cyano-2-methoxy-pyridine)-3-sulfonamido)-2,6-difluorophenyl)-7-fluoro-1H-indazole-3-carboxamide] showed an IC50 of 500 to 2500 nM.
COc1ncc(Cl)cc1S(=O)(=O)Nc1ccc(F)c(-c2ccc3c(C(=O)Nc4nnn(C)n4)n[nH]c3c2F)c1F [Example 3CZ, 6-(3-((5-chloro-2-methoxy-pyridine)-3-sulfonamido)-2,6-difluorophenyl)-7-fluoro-N-(2-methyl-2H-tetrazol-5-yl)-1H-indazole-3-carboxamide] was tested, and the IC50 was 500 to 2500 nM.
COc1ncc(Cl)cc1S(=O)(=O)Nc1ccc(F)c(-c2ccc3c(C(=O)NC[C@H]4CCCN4C)n[nH]c3c2F)c1F [Example 3D, 6-(3-((5-chloro-2-methoxy-pyridine)-3-sulfonamido)-2,6-difluorophenyl)-7-fluoro-N-(((R)-1-methylpyrrolidin-2-yl)methyl)-1H-indazole-3-carboxamide] was tested, and the IC50 was < 500 nM.
COc1ncc(Cl)cc1S(=O)(=O)Nc1ccc(F)c(-c2ccc3c(C(=O)Nc4cc(F)cc(Cl)c4)n[nH]c3c2F)c1F [Example 3DA, 6-(3-((5-chloro-2-methoxy-pyridine)-3-sulfonamido)-2,6-difluorophenyl)-N-(3-chloro-5-fluorophenyl)-7-fluoro-1H-indazole-3-carboxamide] was tested, and the IC50 was 2500 to 10000 nM.
For COc1ncc(CO)cc1S(=O)(=O)Nc1ccc(F)c(-c2ccc3c(C(=O)NCCCN(C)C)n[nH]c3c2F)c1F [Example 3DB, 6-(2,6-difluoro-3-((5-(hydroxymethyl)-2-meth-oxypyridine)-3-sulfonamido)-phenyl)-N-(3-(dimethyl-amino)propyl)-7-fluoro-1H-indazole-3-carboxamide], the IC50 was > 10000 nM.
Work on COc1ncc(CO)cc1S(=O)(=O)Nc1ccc(F)c(-c2ccc3c(-c4ncc[nH]4)n[nH]c3c2F)c1F [Example 3DC, N-(2,4-difluoro-3-(7-fluoro-3-(1H-imidazol-2-yl)-1H-indazol-6-yl)phenyl)-5-(hydroxylmethyl)-2-methoxypyridine-3-sulfonamide] yielded an IC50 of 500 to 2500 nM.
